Laboratory results: paper PMC9161972 (Journal of Medical Virology, 2022)
Where two headings read alike, the source gives them in different places. Where a SMILES comes first, the peptide text is derived from it. The star is where a group is joined. Cbz = O=C(OCc1ccccc1)*; CHN2 = [N-]=[N+]=C*; tBu = CC(C)(C)*

Legend:
[1] = test system: A549 cells
[2] = test system: HIV/MARV pseudovirus (Marburg virus Musoke glycoprotein); assay: organism not typed; format: cell-based; conditions: for IC50: read-out: IC50 HIV/MARV
[3] = test system: HIV/EBOV pseudovirus (Ebola virus Zaire Mayinga glycoprotein); assay: organism not typed; format: cell-based; conditions: for IC50: read-out: IC50 HIV/EBOV
[4] = test system: HIV/VSV pseudovirus (control); format: cell-based, vesicular stomatitis virus
[5] = test system: HIV/MLAV pseudovirus (Měnglà virus glycoprotein); assay: organism not typed; format: cell-based; conditions: for IC50: read-out: IC50 HIV/MLAV
[6] = in vitro; conditions: human
[7] = test system: MLAV; conditions: cited from earlier work

Compound	CC50 [6] [µM]	IC50 ([2]; A549, 48 h) [µM]	IC50 ([3]; A549, 48 h) [µM]	IC50 ([5]; A549, 48 h) [µM]	further results
CC(C)(C)Oc1ccc(C[C@H](NC(=O)[C@H](Cc2ccccc2)NC(=O)OCc2ccccc2)C(=O)C=[N+]=[N-])cc1 [Cathepsin L Inhibitor III] (Cbz-Phe-Tyr(tBu)-CHN2)	–	–	–	–	CC50 [1]: > 100 µM; IC50 [2]: 2.38 ± 0.4 µM; IC50 [3]: 0.75 ± 0.19 µM; inhibition of VSV pseudovirus entry at 100 µM (in words) [4]: no inhibition; IC50 [5]: 7.14 ± 1.5 µM
CN1[C@@H]2CC[C@H]1C[C@@H](OC(c1ccccc1)c1ccccc1)C2 [Benztropine]	54.5 ± 2	–	–	–	–
CN(C)CCOc1ccc(/C(=C(/CCCl)c2ccccc2)c2ccccc2)cc1 [Toremifene]	25.3 ± 1.6	1.75 ± 0.86	0.06 ± 0.05	3.63 ± 0.72	inhibition of MLAV (in words) [7]: inhibited MLAV
CCCCOc1cc(C(=O)NCCN(CC)CC)c2ccccc2n1 [Dibucaine]	51.3 ± 1.2	5.82 ± 0.37	2.93 ± 1.04	10.8 ± 1.68	–
CCCNC(=O)[C@H]1O[C@@H]1C(=O)N[C@H](C(=O)N1CCC[C@H]1C(=O)O)[C@@H](C)CC [CA‐074]	–	–	–	–	CC50 [1]: > 100 µM; inhibition of MARV pseudovirus entry at 100 µM (in words) ([2]; at 100 µM): resistant; IC50 [2]: > 100 µM; IC50 [3]: 28.4 ± 6.56 µM; inhibition of VSV pseudovirus entry at 100 µM (in words) [4]: resistant; inhibition of MLAV pseudovirus entry at 100 µM (in words) ([5]; at 100 µM): resistant; IC50 [5]: > 100 µM
CN[C@H]1CC[C@@H](c2ccc(Cl)c(Cl)c2)c2ccccc21 [Sertraline]	15 ± 0.9	–	–	–	–
Fc1ccc([C@@H]2CCNC[C@H]2COc2ccc3c(c2)OCO3)cc1 [Paroxetine]	23.6 ± 2.5	1.83 ± 0.66	0.36 ± 0.4	4.88 ± 1.7	selectivity index (SI) with MLAV [5]: 5
CN(C)CCCN1c2ccccc2CCc2ccccc21 [Imipramine]	76.3 ± 7.4	5.55 ± 1.12	2 ± 0.65	7.91 ± 0.81	–
CC(=O)N[C@@H](CC(C)C)C(=O)N[C@@H](CC(C)C)C(=O)N[C@H](C=O)CCCNC(=N)N [Leupeptin]	> 100	0.92 ± 0.27	0.41 ± 0.04	1.24 ± 0.29	inhibition of VSV pseudovirus entry (in words) [4]: ineffective
CC(C)[C@H](NC(=O)OCc1ccccc1)C(=O)N[C@H](C=O)Cc1ccccc1 [MDL‐28170] (Cbz-Val-Phe-aldehyde)	> 100	1.69 ± 0.46	1.44 ± 0.2	9.46 ± 1.69	inhibition of MARV pseudovirus entry (in words) [2]: can block; inhibition of EBOV pseudovirus entry (in words) [3]: can block; inhibition of MLAV pseudovirus entry (in words) [5]: can block
CNCCC(Oc1ccc(C(F)(F)F)cc1)c1ccccc1 (centres unmarked) [Fluoxetine]	28.7 ± 0.1	–	–	–	–
NCCc1ccc(S(=O)(=O)F)cc1 [AEBSF]	–	–	–	–	CC50 [1]: ~100 µM; inhibition of MARV pseudovirus entry (in words) [2]: limited inhibition; IC50 [2]: 29 ± 1.7 µM; inhibition of EBOV pseudovirus entry (in words) [3]: limited inhibition; IC50 [3]: 19.1 ± 0.58 µM; inhibition of MLAV pseudovirus entry (in words) [5]: unable to effectively inhibit; IC50 [5]: 36.7 ± 10.4 µM
CC(C)COCC(CN(Cc1ccccc1)c1ccccc1)N1CCCC1 (centres unmarked) [Bepridil]	34.7 ± 4.6	7.37 ± 0.9	3.27 ± 0.4	9.74 ± 0.94	–
